A short description of assay [1]: cells. Format: functional, cell-based. To be noted: HEK-CNG.
Assay [2] can be described thus: NIH3T3 cell viability loss – ATP luminescence, mouse fibroblasts, counter-screen, dose response (AID 2010).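 Further: cells exposed to compound for about 90 hours before reading.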 The assay is classed as functional, cell-based. In general terms: Counterscreens check selectivity or assay interference.
A short description of assay [3]: Counterscreen for AddAB inhibitors: absorbance-based bacterial cell-based high throughput dose response assay for inhibitors of bacterial viability. [Related pubchem assays (depositor defined):AID435030, AID449728, AID449731, AID488942, AID488955, AID488956]. The assay is classed as functional.
The next assay addresses Galanin receptor type 3 (Homo sapiens, UniProt O60755). The assay is described as follows: Fluorescence-based cell-based primary high throughput dose response assay to identify antagonists of the Galanin Receptor 3 (GalR3). The assay is classed as functional.
The nature of assay [4]: Trypanosoma cruzi growth suppression in host cells – NIH3T3 host cells, beta-gal luminescence, confirmation (AID 2044).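 Further: intracellular parasites grown in NIH/3T3 mouse fibroblasts as host cells; luminescent beta-galactosidase reporter signal from transgenic T. cruzi replicating inside host cells; inhibitors lower the luminescence signal.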 Format: functional, cell-based.
Another assay has as its target T1, Exodeoxyribonuclease V (Escherichia coli (strain K12), UniProt P04993+P07648+P08394).
T1 sequence (P04993 whole entry): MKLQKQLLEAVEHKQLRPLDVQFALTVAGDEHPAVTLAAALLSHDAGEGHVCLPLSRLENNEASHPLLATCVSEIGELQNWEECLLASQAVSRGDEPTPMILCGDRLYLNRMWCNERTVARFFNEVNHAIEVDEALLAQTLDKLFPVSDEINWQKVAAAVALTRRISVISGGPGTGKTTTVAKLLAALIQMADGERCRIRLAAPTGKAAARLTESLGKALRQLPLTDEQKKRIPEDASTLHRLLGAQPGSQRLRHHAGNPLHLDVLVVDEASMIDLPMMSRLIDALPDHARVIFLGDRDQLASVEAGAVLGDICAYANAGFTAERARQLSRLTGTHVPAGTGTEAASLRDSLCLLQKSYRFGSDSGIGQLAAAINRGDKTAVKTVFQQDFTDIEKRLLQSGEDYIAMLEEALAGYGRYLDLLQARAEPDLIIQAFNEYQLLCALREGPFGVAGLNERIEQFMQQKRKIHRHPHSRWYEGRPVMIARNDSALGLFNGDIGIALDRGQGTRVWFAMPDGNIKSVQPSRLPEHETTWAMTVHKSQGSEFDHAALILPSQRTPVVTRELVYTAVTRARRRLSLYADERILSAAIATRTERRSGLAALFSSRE
T1 sequence (P07648 whole entry): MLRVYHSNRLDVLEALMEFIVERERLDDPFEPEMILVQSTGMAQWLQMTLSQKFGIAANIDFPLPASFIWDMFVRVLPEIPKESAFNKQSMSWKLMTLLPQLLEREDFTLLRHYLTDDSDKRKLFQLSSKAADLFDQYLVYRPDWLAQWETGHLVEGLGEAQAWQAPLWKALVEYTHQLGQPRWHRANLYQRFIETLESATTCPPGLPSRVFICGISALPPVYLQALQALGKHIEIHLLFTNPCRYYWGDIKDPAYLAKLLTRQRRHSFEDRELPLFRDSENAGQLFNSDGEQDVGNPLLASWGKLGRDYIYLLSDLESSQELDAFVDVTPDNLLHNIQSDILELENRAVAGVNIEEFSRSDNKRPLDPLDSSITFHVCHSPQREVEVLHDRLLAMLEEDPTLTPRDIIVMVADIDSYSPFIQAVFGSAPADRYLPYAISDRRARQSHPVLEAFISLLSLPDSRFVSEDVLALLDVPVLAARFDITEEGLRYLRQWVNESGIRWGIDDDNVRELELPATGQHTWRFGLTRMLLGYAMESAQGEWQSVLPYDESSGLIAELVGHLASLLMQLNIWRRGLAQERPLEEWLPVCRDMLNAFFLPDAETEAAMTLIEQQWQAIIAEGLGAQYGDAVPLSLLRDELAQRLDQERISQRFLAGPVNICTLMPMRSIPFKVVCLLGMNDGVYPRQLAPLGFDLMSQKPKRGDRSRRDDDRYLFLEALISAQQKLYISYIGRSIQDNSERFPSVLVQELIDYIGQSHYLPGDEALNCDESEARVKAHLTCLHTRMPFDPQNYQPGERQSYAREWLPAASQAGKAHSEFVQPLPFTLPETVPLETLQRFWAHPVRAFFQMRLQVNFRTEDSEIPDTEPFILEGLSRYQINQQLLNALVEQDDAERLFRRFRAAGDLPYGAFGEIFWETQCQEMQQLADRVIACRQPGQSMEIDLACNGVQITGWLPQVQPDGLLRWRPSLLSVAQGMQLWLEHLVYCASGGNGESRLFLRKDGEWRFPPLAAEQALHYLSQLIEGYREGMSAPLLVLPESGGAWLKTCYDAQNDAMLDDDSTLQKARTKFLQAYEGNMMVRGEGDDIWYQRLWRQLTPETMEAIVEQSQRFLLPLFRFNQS
T1 sequence (P08394 whole entry): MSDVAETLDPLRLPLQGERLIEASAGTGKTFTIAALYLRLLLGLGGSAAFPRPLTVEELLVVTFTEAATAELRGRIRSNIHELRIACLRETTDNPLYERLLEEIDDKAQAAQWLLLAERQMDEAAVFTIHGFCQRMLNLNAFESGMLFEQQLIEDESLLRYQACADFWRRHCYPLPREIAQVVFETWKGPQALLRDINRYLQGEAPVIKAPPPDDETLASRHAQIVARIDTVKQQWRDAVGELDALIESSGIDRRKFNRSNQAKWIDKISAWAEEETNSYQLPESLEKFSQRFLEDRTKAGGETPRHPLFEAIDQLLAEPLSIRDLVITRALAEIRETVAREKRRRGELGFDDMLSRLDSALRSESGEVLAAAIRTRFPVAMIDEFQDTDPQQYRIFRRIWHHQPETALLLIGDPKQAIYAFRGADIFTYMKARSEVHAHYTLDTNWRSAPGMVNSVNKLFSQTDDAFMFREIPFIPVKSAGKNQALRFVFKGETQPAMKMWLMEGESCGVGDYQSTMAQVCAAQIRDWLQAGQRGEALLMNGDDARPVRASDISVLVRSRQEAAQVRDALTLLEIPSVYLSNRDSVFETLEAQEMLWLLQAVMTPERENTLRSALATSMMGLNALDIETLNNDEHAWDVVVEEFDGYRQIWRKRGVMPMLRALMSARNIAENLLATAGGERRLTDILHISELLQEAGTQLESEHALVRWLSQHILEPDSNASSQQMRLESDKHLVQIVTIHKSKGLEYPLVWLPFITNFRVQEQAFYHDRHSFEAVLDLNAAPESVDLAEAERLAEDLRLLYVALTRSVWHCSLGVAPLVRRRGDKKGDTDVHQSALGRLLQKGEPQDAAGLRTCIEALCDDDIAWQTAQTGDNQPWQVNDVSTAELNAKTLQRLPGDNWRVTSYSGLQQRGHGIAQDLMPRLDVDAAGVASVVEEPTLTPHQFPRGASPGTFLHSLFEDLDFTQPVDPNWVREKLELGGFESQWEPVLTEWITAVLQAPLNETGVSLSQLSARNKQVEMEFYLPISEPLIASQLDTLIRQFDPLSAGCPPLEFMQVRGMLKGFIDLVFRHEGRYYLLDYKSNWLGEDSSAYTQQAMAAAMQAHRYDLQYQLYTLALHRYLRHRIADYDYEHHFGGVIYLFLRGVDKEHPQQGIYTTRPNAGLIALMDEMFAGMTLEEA
The assay is described as follows: RecBCD inhibition via phage-restricted bacterial growth – absorbance, V66 E. coli, mutant T4 phage, counter-screen for AddAB inhibitor project, dose response (AID 492957). The assay is classed as functional, cell-based, Escherichia coli str. K-12 substr. MG1655.

A short description of assay [5]: cells.
For the next assay, the target named is Nonstructural protein 1 (Influenza A virus, UniProt Q194T2). Format: functional, Influenza A virus (A/California/07/2009(H1N1)).
Assay [6] can be described thus: anti-trypanosomal activity in BESM host cells – imaging, CA-I/72 strain, bovine embryo skeletal muscle, dry powder, dose response (AID 651885). The assay is classed as functional, cell-based.
The target of assay [7] is Potassium channel subfamily K member 3 (Rattus norvegicus, UniProt O54912). The assay is described as follows: SAR analysis for the identification of selective inhibitors of the two-pore domain potassium channel TASK1(KCNK3):Automated Electrophysiology. Format: functional.
The target in assay [8] is Potassium channel subfamily K member 9 (Homo sapiens, UniProt Q9NPC2). Briefly: KCNK9 flux blockade, concentration-response – cell-based, FluxOR thallium flux, selectivity assay for TASK1 inhibitor project, SAR follow-up (AID 652211).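 Further: potency is for inhibitors of the channel.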 The assay is classed as functional.
Assay [9] deals with Potassium channel subfamily K member 3 (Homo sapiens, UniProt O14649). Briefly: inhibition of human KCNK3 channel flux – CHO cells, FluxOR thallium flux, SAR follow-up (AID 652212). The assay is classed as functional.
Assay [10] is described as follows: IGROV1 cell killing – plate reader, dry powder samples, PAX8 inhibitor project, dose response (AID 743043). To be noted: IGROV-1. The assay is classed as functional, cell-based.
In a further assay the target is Paired box protein Pax-8 (Homo sapiens, UniProt Q06710). The assay is described as follows: PAX8 transcriptional activity inhibition in RMG-I – RMG-I cells, luciferase, cherry-pick, dose response (AID 687027).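 Further: luciferase reporter driven by Pax8 target thyroperoxidase promoter measured by SteadyGlo luminescence.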 Format: functional, cell-based.
The nature of assay [11]: A2780 cell killing – plate reader, dry powder samples, cytotoxicity control, dose response (AID 743046). Format: functional, cell-based.
Assay [12] is described as follows: OVCAR-3 cell viability loss – plate reader, dry powder samples, PAX8 inhibitor project, dose response (AID 743044). Format: functional, cell-based.
A short description of assay [13]: OVCAR8 cell viability loss – plate reader, dry powder samples, PAX8 project, dose response (AID 743197). Particulars: OVCAR-8. The assay is classed as functional, cell-based.
The nature of assay [14]: Luminescence Cell-Based Dose Retest to Confirm Inhibitors of Cancer Stem Cells. [Related pubchem assays (depositor defined):AID2717, AID2721]. The assay is classed as functional. Particulars: Homo sapiens.
For the next assay, the target named is Ion channel NompC (Danio rerio, UniProt Q7T1G6). The assay is described as follows: Fluorescence counterscreen assay for TRPML3 agonists: dose response cell-based high-throughput screening assay to identify agonists of the transient receptor potential channel N1 (TRPN1). [Related pubchem assays: 1526, 1424, 1448 ]. Format: functional.
For the next assay, the target named is T2, Mucolipin-3 (Homo sapiens, UniProt Q8TDD5).
T2 sequence (Q8TDD5 whole entry): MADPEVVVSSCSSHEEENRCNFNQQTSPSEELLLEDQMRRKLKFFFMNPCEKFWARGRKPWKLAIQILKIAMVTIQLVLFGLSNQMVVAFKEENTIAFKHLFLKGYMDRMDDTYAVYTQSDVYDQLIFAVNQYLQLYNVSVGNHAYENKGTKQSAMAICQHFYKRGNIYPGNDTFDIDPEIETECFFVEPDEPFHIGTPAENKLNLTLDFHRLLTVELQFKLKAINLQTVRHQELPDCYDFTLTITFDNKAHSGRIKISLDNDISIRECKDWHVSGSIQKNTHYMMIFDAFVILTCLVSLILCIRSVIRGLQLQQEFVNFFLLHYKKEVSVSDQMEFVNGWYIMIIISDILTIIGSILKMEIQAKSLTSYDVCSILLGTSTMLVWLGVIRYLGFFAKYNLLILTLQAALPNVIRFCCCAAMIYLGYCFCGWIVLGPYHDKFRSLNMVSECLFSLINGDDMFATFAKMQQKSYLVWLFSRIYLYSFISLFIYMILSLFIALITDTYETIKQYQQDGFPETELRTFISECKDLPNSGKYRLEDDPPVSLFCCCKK
The assay is described as follows: Dose response cell-based high-throughput screening assay for agonists of the transient receptor potential channel ML3 (TRPML3). [Related pubchem assays: 1526, 1424, 1448 ]. The assay is classed as functional.

The target in assay [15] is Disintegrin and metalloproteinase domain-containing protein 17 (Homo sapiens, UniProt P78536). The assay is described as follows: inhibition of ADAM17 substrate cleavage – biochemical, quenched FRET substrate, counter-screen for ADAM10 exosite inhibitor project, dose response (AID 743253).

Active and inactive are the calls of the source.

Disintegrin and metalloproteinase domain-containing protein 17, sequence (P78536 whole entry, the tested form may be a part): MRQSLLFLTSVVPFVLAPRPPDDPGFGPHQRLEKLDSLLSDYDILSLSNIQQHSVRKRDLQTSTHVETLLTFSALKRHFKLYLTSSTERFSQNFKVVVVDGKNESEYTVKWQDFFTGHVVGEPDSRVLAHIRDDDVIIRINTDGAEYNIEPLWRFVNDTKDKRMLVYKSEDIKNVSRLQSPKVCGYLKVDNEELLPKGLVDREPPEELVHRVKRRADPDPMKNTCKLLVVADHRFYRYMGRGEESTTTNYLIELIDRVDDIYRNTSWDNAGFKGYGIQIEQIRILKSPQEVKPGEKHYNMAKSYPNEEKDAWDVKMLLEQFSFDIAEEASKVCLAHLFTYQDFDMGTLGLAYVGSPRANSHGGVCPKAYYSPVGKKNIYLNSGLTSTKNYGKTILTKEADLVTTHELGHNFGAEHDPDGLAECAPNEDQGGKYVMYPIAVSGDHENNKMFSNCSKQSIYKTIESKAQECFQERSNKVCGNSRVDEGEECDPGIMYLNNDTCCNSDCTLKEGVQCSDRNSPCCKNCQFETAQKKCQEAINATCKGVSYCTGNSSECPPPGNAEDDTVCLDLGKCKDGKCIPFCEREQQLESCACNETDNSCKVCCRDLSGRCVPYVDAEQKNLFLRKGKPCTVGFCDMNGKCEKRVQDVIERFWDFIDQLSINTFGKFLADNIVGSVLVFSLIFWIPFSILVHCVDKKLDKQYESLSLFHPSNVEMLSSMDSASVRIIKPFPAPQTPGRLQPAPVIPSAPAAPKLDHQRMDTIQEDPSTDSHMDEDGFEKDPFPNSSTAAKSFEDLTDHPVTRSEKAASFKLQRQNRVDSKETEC
Potassium channel subfamily K member 3 (Rattus norvegicus, UniProt O54912), sequence (O54912 whole entry, the tested form may be a part): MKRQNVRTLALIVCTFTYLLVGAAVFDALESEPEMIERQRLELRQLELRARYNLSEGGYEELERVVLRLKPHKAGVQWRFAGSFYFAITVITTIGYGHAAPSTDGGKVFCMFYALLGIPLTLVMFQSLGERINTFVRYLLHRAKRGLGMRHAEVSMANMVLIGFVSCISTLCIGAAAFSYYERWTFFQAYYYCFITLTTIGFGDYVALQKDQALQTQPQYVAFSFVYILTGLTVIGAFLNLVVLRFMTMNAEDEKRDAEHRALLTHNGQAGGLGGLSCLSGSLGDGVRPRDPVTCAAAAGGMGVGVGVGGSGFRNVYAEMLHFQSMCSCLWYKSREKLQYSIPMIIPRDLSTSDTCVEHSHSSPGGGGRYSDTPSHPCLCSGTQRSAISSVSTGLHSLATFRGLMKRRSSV
Ion channel NompC, sequence (Q7T1G6 whole entry): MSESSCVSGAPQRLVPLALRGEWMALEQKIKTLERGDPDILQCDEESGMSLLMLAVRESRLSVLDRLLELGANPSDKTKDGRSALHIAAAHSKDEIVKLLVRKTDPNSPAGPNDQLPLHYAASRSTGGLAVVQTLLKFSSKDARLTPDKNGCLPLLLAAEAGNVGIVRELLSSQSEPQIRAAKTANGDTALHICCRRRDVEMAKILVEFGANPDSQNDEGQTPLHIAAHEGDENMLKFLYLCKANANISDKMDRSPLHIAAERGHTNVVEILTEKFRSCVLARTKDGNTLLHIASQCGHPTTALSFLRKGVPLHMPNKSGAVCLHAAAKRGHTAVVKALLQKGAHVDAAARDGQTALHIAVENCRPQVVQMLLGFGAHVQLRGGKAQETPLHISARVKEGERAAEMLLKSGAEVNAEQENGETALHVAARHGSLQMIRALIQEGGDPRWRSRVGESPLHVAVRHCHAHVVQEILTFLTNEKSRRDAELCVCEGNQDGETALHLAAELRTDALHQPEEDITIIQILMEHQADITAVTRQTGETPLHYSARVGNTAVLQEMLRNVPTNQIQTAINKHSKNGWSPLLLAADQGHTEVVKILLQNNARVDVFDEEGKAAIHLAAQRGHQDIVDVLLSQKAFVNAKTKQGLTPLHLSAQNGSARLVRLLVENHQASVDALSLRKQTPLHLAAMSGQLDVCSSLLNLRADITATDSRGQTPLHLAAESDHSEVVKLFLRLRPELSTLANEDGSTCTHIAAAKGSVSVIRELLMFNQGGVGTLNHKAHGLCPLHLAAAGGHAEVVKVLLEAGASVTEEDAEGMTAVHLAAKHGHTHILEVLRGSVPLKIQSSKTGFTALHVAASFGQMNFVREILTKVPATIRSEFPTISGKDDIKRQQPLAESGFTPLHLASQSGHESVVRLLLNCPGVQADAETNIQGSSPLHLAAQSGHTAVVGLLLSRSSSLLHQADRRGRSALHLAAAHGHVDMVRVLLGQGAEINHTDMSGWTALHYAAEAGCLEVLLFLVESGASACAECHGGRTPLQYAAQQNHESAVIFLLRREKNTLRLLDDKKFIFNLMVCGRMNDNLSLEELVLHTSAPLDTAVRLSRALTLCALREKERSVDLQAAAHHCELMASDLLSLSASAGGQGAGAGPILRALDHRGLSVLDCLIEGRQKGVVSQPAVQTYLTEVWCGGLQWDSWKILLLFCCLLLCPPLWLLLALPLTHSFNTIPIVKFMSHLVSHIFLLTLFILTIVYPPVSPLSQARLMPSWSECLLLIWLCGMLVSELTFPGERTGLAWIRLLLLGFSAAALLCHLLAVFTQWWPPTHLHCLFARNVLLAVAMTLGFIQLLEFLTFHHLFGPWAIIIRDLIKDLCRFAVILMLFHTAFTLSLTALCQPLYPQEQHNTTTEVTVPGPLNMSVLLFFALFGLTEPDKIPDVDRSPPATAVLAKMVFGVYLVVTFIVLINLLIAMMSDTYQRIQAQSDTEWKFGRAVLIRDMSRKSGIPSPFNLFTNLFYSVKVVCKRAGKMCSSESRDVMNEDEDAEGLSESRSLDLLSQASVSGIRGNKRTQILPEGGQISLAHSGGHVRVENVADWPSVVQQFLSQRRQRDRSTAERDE
Paired box protein Pax-8, sequence (Q06710 whole entry): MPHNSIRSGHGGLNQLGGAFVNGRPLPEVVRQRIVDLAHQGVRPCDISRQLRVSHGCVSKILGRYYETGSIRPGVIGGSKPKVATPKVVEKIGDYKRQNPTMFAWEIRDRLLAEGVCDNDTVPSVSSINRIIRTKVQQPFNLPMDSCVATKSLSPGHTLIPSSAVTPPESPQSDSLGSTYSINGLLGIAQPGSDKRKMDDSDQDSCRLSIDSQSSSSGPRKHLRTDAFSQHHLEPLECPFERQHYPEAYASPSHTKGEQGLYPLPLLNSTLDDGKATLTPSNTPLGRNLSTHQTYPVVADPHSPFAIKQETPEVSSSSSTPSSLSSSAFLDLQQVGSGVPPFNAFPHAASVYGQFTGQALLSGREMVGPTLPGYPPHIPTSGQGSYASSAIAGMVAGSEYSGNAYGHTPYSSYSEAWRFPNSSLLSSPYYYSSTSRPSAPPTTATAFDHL
Potassium channel subfamily K member 9, sequence (Q9NPC2 whole entry): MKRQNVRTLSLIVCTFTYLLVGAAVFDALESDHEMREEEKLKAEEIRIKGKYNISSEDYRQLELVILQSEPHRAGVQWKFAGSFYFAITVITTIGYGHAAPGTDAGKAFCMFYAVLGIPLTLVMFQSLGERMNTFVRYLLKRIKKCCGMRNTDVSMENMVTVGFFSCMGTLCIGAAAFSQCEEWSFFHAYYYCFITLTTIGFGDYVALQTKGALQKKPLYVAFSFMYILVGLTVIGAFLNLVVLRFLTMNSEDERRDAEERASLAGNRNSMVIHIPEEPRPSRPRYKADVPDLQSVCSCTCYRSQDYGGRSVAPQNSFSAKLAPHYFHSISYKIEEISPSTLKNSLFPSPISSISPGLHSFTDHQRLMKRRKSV
Nonstructural protein 1, sequence (Q194T2 whole entry): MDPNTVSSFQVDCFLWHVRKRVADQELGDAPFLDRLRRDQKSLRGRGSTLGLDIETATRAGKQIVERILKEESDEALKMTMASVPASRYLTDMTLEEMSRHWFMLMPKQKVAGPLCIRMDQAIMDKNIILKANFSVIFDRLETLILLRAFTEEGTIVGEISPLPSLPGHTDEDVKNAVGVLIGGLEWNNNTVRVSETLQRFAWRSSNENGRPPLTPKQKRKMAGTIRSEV
Galanin receptor type 3, sequence (O60755 whole entry): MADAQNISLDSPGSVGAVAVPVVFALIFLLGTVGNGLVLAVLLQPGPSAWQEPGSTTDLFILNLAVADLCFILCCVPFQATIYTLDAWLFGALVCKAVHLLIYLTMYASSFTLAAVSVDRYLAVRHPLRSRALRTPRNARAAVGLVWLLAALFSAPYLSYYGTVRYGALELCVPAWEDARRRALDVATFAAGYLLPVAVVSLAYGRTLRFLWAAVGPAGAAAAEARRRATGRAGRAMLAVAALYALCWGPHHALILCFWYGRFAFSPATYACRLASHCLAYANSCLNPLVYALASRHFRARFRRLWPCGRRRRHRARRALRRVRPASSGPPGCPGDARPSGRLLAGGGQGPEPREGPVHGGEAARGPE
Potassium channel subfamily K member 3 (Homo sapiens, UniProt O14649), sequence (O14649 whole entry): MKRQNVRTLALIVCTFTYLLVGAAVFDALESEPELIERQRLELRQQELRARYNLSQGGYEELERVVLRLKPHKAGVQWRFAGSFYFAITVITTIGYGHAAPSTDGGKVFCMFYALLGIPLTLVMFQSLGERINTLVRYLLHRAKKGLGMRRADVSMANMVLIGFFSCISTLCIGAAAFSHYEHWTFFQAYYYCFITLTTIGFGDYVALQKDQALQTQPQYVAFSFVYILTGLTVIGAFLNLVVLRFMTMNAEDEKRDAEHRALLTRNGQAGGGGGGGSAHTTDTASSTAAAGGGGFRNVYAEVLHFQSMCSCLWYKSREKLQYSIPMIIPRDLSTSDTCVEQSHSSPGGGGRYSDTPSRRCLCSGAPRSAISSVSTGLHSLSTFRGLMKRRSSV

As to `C=CCN1/C(=C/c2ccc3cc(C)ccc3[n+]2CC)C=Cc2ccccc21`, the EC50 (usually the concentration giving half of the maximal effect) in “cells [1]” was > 29.9 µM (inactive); in assay [2] it was 6.53 µM (active); in assay [4], < 0.1 µM (active); in “cells [5]”, 0.054 µM (active). In addition, the IC50 (commonly the concentration that gives 50% inhibition) in [3] is 35.8 µM (inactive); on Galanin receptor type 3, > 0.123 µM (active); on Exodeoxyribonuclease V it was > 39.5 µM (inactive); on Nonstructural protein 1 it was 11.7 µM (active).
With `CC(C)N1C[C@H](C)[C@@H](CN(C)C(=O)OC(C)(C)C)Oc2c(C#N)cccc2C1=O`, the IC50 in [6] was > 20 µM (inactive).
On to `COc1ccccc1NC(=O)c1cccc(NC(=O)c2ccccc2C(F)(F)F)c1`, for which the IC50 is 0.149 µM (active) in assay [7], 1.32 µM (active) in assay [8] and 0.042 µM (active) in [9].
As to `C[C@@H]1CN([C@@H](C)CO)C(=O)c2cc(NS(=O)(=O)c3ccc(F)cc3)ccc2O[C@@H](C)CCCCO[C@@H]1CN(C)Cc1ccc(C(F)(F)F)cc1`, the AC50 (in general, the concentration giving half of the maximal activity seen) was 57.6 µM (active) in [10]; 8.92 µM (active) on Paired box protein Pax-8; 62.8 µM (active) in [11]; 40.5 µM (active) in assay [12]; 55.4 µM (active) in [13].
With `CCOC(=O)c1c(CSc2ccc(C)cc2)oc2ccc(O)cc12`, the AC50 in assay [14] was 3.94 µM (active). Moreover, the EC50 is > 29.9 µM (not active) at Ion channel NompC and 4.33 µM (active) on Mucolipin-3. For the same molecule, in assay [15], the IC50 is > 69.6 µM (inactive).

The values above are taken from ChEMBL document CHEMBL1201862, “PubChem BioAssay data set” (2004).
